Patent publication US20070092925A1, “Method of treating skin by delivering specific protein stabilizers/protectors to skin proteins and methods of selecting said stabilizers” (Conopco, Inc., d/b/a UNILEVER, priority 2005, published 2007)
“Also recorded” adds a separate entry of the source.

Tests used:
[1] = target: T1, trypsin from bovine pancreas (Bos taurus, UniProt P00760); assay: trypsin autolysis followed by fluorescence spectroscopy (ratio R versus time, FIG. 2); format: biochemical; settings: 0.1 M TRIS buffer pH 7.5, compared with water
T1 construct: purchased Sigma; host or cells: bovine pancreas
T1 sequence (P00760 24-246): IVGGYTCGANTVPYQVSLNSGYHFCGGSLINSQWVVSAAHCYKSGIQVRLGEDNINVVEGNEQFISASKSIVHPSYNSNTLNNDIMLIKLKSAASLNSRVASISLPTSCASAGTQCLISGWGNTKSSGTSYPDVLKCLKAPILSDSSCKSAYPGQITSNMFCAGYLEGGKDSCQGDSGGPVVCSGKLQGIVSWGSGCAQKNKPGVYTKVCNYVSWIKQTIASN
From the text: (§1) The process of serine protease (e.g., trypsin) autolysis can be followed by using fluorescence spectroscopy. […] Consequently, the autolysis of trypsin and subsequent unfolding is accompanied by spectral changes that can be detected by obtaining fluorescence spectra at various time points after preparing a fresh solution of trypsin.
(§2) The iso-emissive points (fluorescence intensity independent of time) at 305 nm and 360 nm are typical of a situation where one fluorescent component (native protein) is the source of the other fluorescent component(s) (denatured protein and cleaved fragments). Applicants quantified the change in the trypsin spectrum by taking a ratio, R, of the area between 320 nm and 330 nm and the area between 380 nm and 400 nm: [formula]
(§3) The numerator represents the relative amount of native protein in the sample and the denominator represents relative amount of denatured protein and cleaved fragments. R therefore is a measure of how far the autolysis process has progressed.
(§4) Protocol—Fresh solutions of trypsin (2.5 mg/ml) were prepared by mixing the appropriate amount of solid trypsin from bovine pancreas (Sigma) with appropriate amounts of buffer solution (1M, pH 7.5; VWR), water, and protein stabilizing compound (pyrollidone carboxylic acid—Sigma Ultrapure; trimethylamine N-oxide—Fluka Purum; glycerin—J.T. Baker; 1-Propanaminium, 2,3-dihydroxy-N,N,N-trimethyl-, chloride—synthesized and purified in house), and/or protein destabilizing compound (urea—J.T. Baker Ultrapure Bioreagent); sodium dodecyl sulfate—ICN Ultrapure). All chemicals were used as supplied. Within minutes of dissolving the solid trypsin the solution was transferred into a quartz fluorescence cuvette and placed inside a Perkin Elmer LS 50 B fluorescence spectrometer. Fluorescence spectra were subsequently measured, either every 5 minutes or every 10 minutes. The excitation wavelength was 280 nm.
A seen in FIG. 2, applicants plotted trypsin autolysis as followed by fluorescence spectroscopy in various media with 0.1 M TRIS buffer pH 7.5. These media include: 0.5 M PCA, i.e., pyrollidone carboxylic acid (closed triangles); 1 M TMAO (closed diamonds); 1 M glycerol (closed circles); 1M 1-propanaminium, 2,3-dihydroxy-N,N,N-trimethyl-,chloride (crosses); water (closed squares); 1 M urea (open triangles); and 0.5 mM SDS, i.e., sodium dodecyl sulphate (open circles).
The ability of various compounds or combinations of compounds to increase or depress the rate of trypsin autolysis can be compared by plotting R as a function of time as is shown, for example, in FIG. 2.

[2] = target: T1, trypsin from bovine pancreas; assay: trypsin autolysis followed by fluorescence spectroscopy in the presence of the denaturant SDS (FIG. 3); format: biochemical
From the text: as §1, §2, §3, §4
For reference purposes, also shown are autolysis traces in the presence of 0.5 mM SDS without any protein stabilizer (open squares) and without any SDS or protein stabilizer (closed squares).

[3] = 1.0 M stabilizer plus 0.5 mM SDS

Row | Compound | rate of trypsin autolysis (R as a function of time) ([1]; […] compound) | rate of trypsin autolysis in the presence of SDS [2, 3] | further results
1 | C[N+](C)(C)CC(O)CO.[Cl-] (stereo not drawn) [1-Propanaminium, 2,3-dihydroxy-N,N,N-trimethyl-, chloride] | exceed that of both glycerol and TMAO | – | –
2 | O=C1CC[C@@H](C(=O)O)N1 [PCA, pyrollidone carboxylic acid] | – | – | rate of trypsin autolysis (R as a function of time) ([1]; 0.5 M compound): virtual absence of autolysis; also recorded: by far the strongest ability of any of the compounds tested to stabilize trypsin; rate of trypsin autolysis in the presence of SDS ([2]; 0.5 M stabilizer plus 0.5 mM SDS): able to “protect” proteins against a denaturing force; also recorded: still slower than in the absence of both SDS and a protein stabilizer
3 | C[N+](C)(C)[O-] [TMAO, trimethylamine N-oxide] | exceeds glycerol in its ability to stabilize trypsin against autolysis | able to “protect” proteins against a denaturing force; also recorded: still slower than in the absence of both SDS and a protein stabilizer | –
4 | NC(N)=O [urea] | significant increase in the rate of trypsin hydrolysis | – | –
5 | OCC(O)CO [glycerol] | significantly reduces the rate of trypsin autolysis | able to “protect” proteins against a denaturing force | –
6 | CCCCCCCCCCCCOS(=O)(=O)[O-].[Na+] [SDS, sodium dodecyl sulfate] | – | – | rate of trypsin autolysis (R as a function of time) ([1]; 0.5 mM compound): significant increase in the rate of trypsin hydrolysis
